Patent US9532519B2, “Plant growth regulator and use thereof” (Japan Science and Technology Agency, priority 2006, dated 2017)

What was measured:
Arabidopsis [1] = assay: Influence of oxidized glutathione on growth of Arabidopsis; format: in vivo; conditions: in vivo
Procedure: Specifically, the plants were cultivated with two or three plants in one pod of approximately 65 in width, 65 in depth, and 50 in height, and an appropriate amount of a treatment solution was supplied. The effect of the treatment was evaluated with respect to the number of rosette leaves, the speed of a growing flower stalk, the number of flowers, and the number of seeds.

Arabidopsis seeds = assay: Germination rate (ripeness) of seeds from Arabidopsis cultivated with oxidized glutathione; format: in vivo
Excerpt: Ripeness of seeds obtained from Arabidopsis cultivated with oxidized glutathione was examined.

Arabidopsis [2] = assay: Influence 1 of treatment condition on seeds of Arabidopsis (concentration and duration from sowing); format: in vivo
Procedure: Seeds of Arabidopsis were sown in pods filled with soil immersed in 0 mM-, 0.01 mM-, 0.2 mM-, 1 mM-, 2 mM-, and 5 mM-GSSG.
(§1) Arabidopsis was cultivated under the same conditions as those described in <1. Influence of oxidized glutathione on growth of Arabidopsis> except for the above condition.
The seed weight per one pod, obtained from Arabidopsis thus cultivated (three plants in each pod), was measured. The results of the measurement are shown in FIGS. 10-12. n is the number of plants that can be finally harvested.

Arabidopsis [3] = assay: Influence 2 of treatment condition on seeds of Arabidopsis (start time of 1 mM-GSSG); format: in vivo; conditions: regardless of the time of treating
Procedure: Seeds of Arabidopsis were sown in pods filled with soil immersed in water. The pods were transferred to trays with water containing 1 mM-GSSG 2 days after, 1 week after, 2 weeks after, 3 weeks after, 4 weeks after, 5 weeks after, 6 weeks after, or 7 weeks after the sowing.
as §1
The seed weight per one pod, obtained from Arabidopsis thus cultivated (three plants in each pod), was measured.

Arabidopsis [4] = assay: Influence 5 of treatment condition on Arabidopsis: seed weight, dry weight, harvest index; format: in vivo
Procedure: Seeds of Arabidopsis were sown in pods filled with soil immersed in water. The pods were transferred to trays filled with water containing 0.2 mM-GSSG or 1 mM-GSSG and cultivated there only for two weeks that were the first and second weeks (0th-14th day), the third and fourth weeks (15th-28th day), the fifth and sixth weeks (29th-42nd day), or the seventh and eighth weeks (43rd-56th day) after the sowing. That is, Arabidopsis were treated with 0.2 mM-GSSG or 1 mM-GSSG only for two weeks in a specific growth period.
as §1
The seed weight, dry weight, and harvest index of Arabidopsis thus cultivated (three plants in each pod) were measured and an average of three pods was calculated.

[5] = tested on: Soybean (breed: Tsurumusume) and soybean (breed; Toyomusume); assay: Influence of oxidized glutathione on growth and yield of seeds of soybean, agricultural field; format: in vivo; conditions: 0.5 mM-GSSG, 50 mL per individual two times a week at base of stem; each breed
Procedure: The soybean was fertilized with a nitrogen fertilizer that was KUMIAI RIN […] S604 in a ratio of 20 kgN per 10 are, and was additionally fertilized with 5 kgN 3 weeks later.
Further, in a GSSG-treated management zone, a 0.5 mM-GSSG solution was given to the base of a stem (see the arrow in FIG. 21) in the amount of 50 mL per one individual two times a week in such a manner that the solution flowed along the stem.
In a case where it was likely to rain, the GSSG solution was supplied to the plant after the rain. Similarly, in a case of watering, the GSSG solution was supplied to the plant after the watering. When the harvest time of the plant of the control (i.e. normal nitrogen management zone) was coming, supply of the GSSG solution to the plant in the GSSG-treated management zone was stopped.
The seed weight, the amount of biomass, and the harvest index of the plant thus obtained in the GSSG-treated management zone, each relative to that of the plant in the normal nitrogen management zone, were measured.

[6] = tested on: Sweet corn (Canberra 90, TAKII & CO., LTD.); assay: Effect 1 of oxidized glutathione on productivity of corn; format: in vivo; conditions: 200 mL of 0.5 mM-GSSG two times a week for 12 weeks at root
Procedure: Sweet corn (Canberra 90, TAKII & CO., LTD.) was sown, and then transferred to a hydroponics pot ( 1/2000 are) filled with a culture soil (6 L of vermiculite as the lower layer, 3 L of The Kureha Ikubyou Baido soil as the middle layer, and 3 L of vermiculite as the upper layer) two weeks later and additionally fertilized with 3 g of KUMIAI RIN […] S604 four weeks later and six weeks later. Further, the GSSG-treated plant was given 200 mL of 0.5 mM-GSSG two times a week for 12 weeks after germination at its root.

[7] = tested on: Rose saplings (breed; Purple rose); assay: Effect 1 on promoting growth of sprout and floral bud of rose (Purple rose); format: in vivo; conditions: 50 mL of 0.5 mM-GSSG two times a week; one month from the fertilization
Procedure: Rose saplings (breed; Purple rose) were purchased at a hardware store and cultivated in pods for rice hydroponics. The rose saplings were fertilized with 50 mL of a 0.5 mM-GSSG solution in the form of a liquid fertilizer two times a week.

[8] = tested on: Rose saplings (breed; JJ scarlet and JJ apricot); assay: Effect 2 on promoting growth of sprout and floral bud of rose (JJ scarlet and JJ apricot); format: in vivo; conditions: 50 mL of 0.5 mM-GSSG two times a week; fourth and eighth day from the fertilization
Procedure: Rose saplings (breed; JJ scarlet and JJ apricot) were purchased at a hardware store and cultivated in pods for rice hydroponics. The rose saplings were fertilized with 50 mL of a 0.5 mM-GSSG solution in the form of a liquid fertilizer two times a week.
In (a)-(d) of FIG. 35, the breeds of three plants are JJ scarlet, JJ apricot, and JJ scarlet, respectively from the left.

[9] = tested on: Roses (breed; Patiohit alicante); assay: Effect 1 on promotion of induction of floral bud of rose; format: in vivo; conditions: 50 mL of 0.5 mM-GSSG two times a week; approximately three and a half months
Procedure: Roses (breed; Patiohit alicante) were purchased at a hardware store and fertilized with 50 mL of a 0.5 mM-GSSG solution in the form of a liquid fertilizer two times a week. Approximately three and a half months later, plants in a GSSG-treated zone and plants in a non-GSSG-treated zone were compared with each other.

[10] = tested on: transformants of Arabidopsis to which a gene encoding gFBA was introduced and the wild-type Arabidopsis (Columbia; Col); conditions: in vivo

Substance: oxidized glutathione [GSSG]
- effective number of seeds per plant relative to plants cultivated with only water or 5 mM H2O2 (Arabidopsis [1]): approximately three or four times as large
- growth of leaves (size and shape) (Arabidopsis [1]): grew larger and rounder
- number of flowers and area of leaves (Arabidopsis [1]): greatly larger
- plant length, stem and leaves (Arabidopsis [1]): shorter plant length, a thicker stem, and larger leaves
- state of plant (life of plant) (Arabidopsis [1]): showed much amount of green leaves
- germination rate (Arabidopsis seeds; 2 days after the sowing): significantly high
- germination rate, difference from seeds of plants cultivated normally (Arabidopsis seeds; 7 days after the sowing): almost no difference
- germination speed of seeds of treated plants vs plants cultivated normally (Arabidopsis seeds; seeds sown in 1/2 MS culture media): germinated faster
- seed weight per pod: effective concentration (Arabidopsis [2]; supplying GSSG for a long time): GSSG with low concentration is more effective than GSSG with high concentration
- seed weight per pod: effective concentration (Arabidopsis [2]; supplying GSSG for a short time): GSSG with high concentration is more desirable
- seed weight per one pod vs no treatment (Arabidopsis [3]): more seed weight
- dry weight vs not treated (Arabidopsis [4]; 0.2 mM-GSSG): increased little
- harvest index vs not treated (Arabidopsis [4]; 0.2 mM-GSSG): increased
- seed weight vs not treated (Arabidopsis [4]; 0.2 mM-GSSG): increased
- dry weight vs not treated (Arabidopsis [4]; 1 mM-GSSG): evidently increased
- seed weight vs not treated (Arabidopsis [4]; 1 mM-GSSG): evidently increased
- harvest index vs not treated (Arabidopsis [4]; 1 mM-GSSG, except when treated 1 or 2 weeks after the sowing): evidently increased
- amount of biomass vs normal nitrogen management zone [5]: higher
- harvest index vs normal nitrogen management zone [5]: higher
- seed weight vs normal nitrogen management zone [5]: higher
- amount of biomass of the portions other than the fruits vs not treated [6]: no great difference
- amounts of biomass of the fruits and ground parts [6]: significantly high
- formation of floral buds vs not treated [6]: promotion of formation of floral buds
- harvest index vs not treated [6]: significantly high harvest index
- number of edible seeds vs not treated [6]: more number of edible seeds
- size of fruits vs not treated [6]: larger
- size of seeds vs not treated [6]: larger
- growth of sprout vs not treated [7]: promoted growth of sprout
- growth of sprout vs not treated [8]: promoted growth of sprout
- number of bloomed flowers vs not treated [9]: greatly larger number of bloomed flowers
- harvest index, whole amount of biomass and seed weight [10]: increased any of the harvest index, the whole amount of biomass, and the seed weight
